The values that follow come from patent US7135467B2, “HIV integrase inhibitors” (priority 2003, dated 2006).

Structures are written as SMILES. pIC50: −log10 of the molar value.

In this assay the target is T1, HIV-integrase (recombinant integrase) (Human immunodeficiency virus type 1 group M subtype B, UniProt P12497).
T1 construct: Recombinant integrase (0.26 ng) was incubated with the beads
The assay can be described thus: HIV-Integrase Inhibition Activity (SPA bead strand-transfer assay). The assay is classed as biochemical. The following applies: recombinant integrase on biotin labeled substrate DNA/SPA beads, P33 labeled target DNA; read-out: Activity (IC50 against HIV-integrase). Here is the method:
To evaluate in-vitro activity against HIV-integrase, 5 pmole of biotin labeled substrate DNA was bound to 100 μg of Streptavidin coated PVT SPA beads (Amersham Pharmacia Biotech). Recombinant integrase (0.26 ng) was incubated with the beads for 90 min at 37° C. Unbound enzyme was removed by washing the complex followed by addition of inhibitors and 0.1 fmol of P33 labeled target DNA. The reaction was stopped by adding EDTA to a final concentration of 10 mM. Samples were counted in TopCountNXT (Packard) and the CPM was used as a measure of integration. The reaction condition was as described in A. Engelman and R. Craigie, J. Virol. 69, 5908–5911 (1995). The sequences of substrate and target DNA were described in Nucleic Acid Research 22, 1121–1122 (1994). Activity equal to A refers to a compound having IC50=0.003 to 0.10 μM while B and C denote compounds the following IC50=0.1 to 1.0 μM and IC50≧1.0 μM respectively.
By pIC50 is commonly meant −log10 of the IC50, conventionally taken in molar units. With `Cn1c(N2CCCCS2(=O)=O)nc(C(=O)NCc2ccccc2F)c(O)c1=O` [Compound 28, N-[(2-fluorophenyl)methyl]-1,6-dihydro-5-hydroxy-1-methyl-6-oxo-2-(tetrahydro-1,1-dioxido-2H-1,2-thiazin-2-yl)-4-pyrimidinecarboxamide], the pIC50 is 6.00 to 7.00. Next, `Cn1c(N2CCCCS2(=O)=O)nc(C(=O)NCc2ccc(Cl)c(Cl)c2)c(O)c1=O` [Compound 2, N-[(3,4-dichlorophenyl)methyl]-1,6-dihydro-5-hydroxy-1-methyl-6-oxo-2-(tetrahydro-1,1-dioxido-2H-1,2-thiazin-2-yl)-4-pyrimidinecarboxamide]: 7.00 to 8.52. On to `Cn1c(N2CCCCS2(=O)=O)nc(C(=O)NCc2ccco2)c(O)c1=O` [Compound 33, N-(2-furanylmethyl)-1,6-dihydro-5-hydroxy-1-methyl-6-oxo-2-(tetrahydro-1,1-dioxido-2H-1,2-thiazin-2-yl)-4-pyrimidinecarboxamide], for which the pIC50 was 6.00 to 7.00.

In the case of `Cc1cc(CNC(=O)c2nc(N3CCC(O)CC3)n(C)c(=O)c2O)ccc1F` [Compound 66, N-[(4-fluoro-3-methylphenyl)methyl]-1,6-dihydro-5-hydroxy-2-(4-hydroxy-1-piperidinyl)-1-methyl-6-oxo-4-pyrimidinecarboxamide], the pIC50 was 7.00 to 8.52.

On to `COc1ccccc1CNC(=O)c1nc(N2CCCCS2(=O)=O)n(C)c(=O)c1O` [Compound 24, 1,6-dihydro-5-hydroxy-N-[(2-methoxyphenyl)methyl]-1-methyl-6-oxo-2-(tetrahydro-1,1-dioxido-2H-1,2-thiazin-2-yl)-4-pyrimidinecarboxamide], for which the pIC50 was 7.00 to 8.52.

Regarding `Cn1c(N2CCN(c3ccccc3)CC2)nc(C(=O)NCc2ccc(F)cc2)c(O)c1=O` [Compound 79, N-[(4-fluorophenyl)methyl]-1,6-dihydro-5-hydroxy-1-methyl-6-oxo-2-(4-phenyl-1-piperazinyl)-4-pyrimidinecarboxamide], the pIC50 was 7.00 to 8.52. On to `Cc1ccc(CCNC(=O)c2nc(N3CCCCS3(=O)=O)n(C)c(=O)c2O)cc1` [Compound 40, 1,6-dihydro-5-hydroxy-1-methyl-N-[2-(4-methylphenyl)ethyl]-6-oxo-2-(tetrahydro-1,1-dioxido-2H-1,2-thiazin-2-yl)-4-pyrimidinecarboxamide], for which the pIC50 was no more than 6.00. Next, `Cc1cc(CNC(=O)c2nc(N3CCN(CCO)CC3)n(C)c(=O)c2O)ccc1F` [Compound 68, N-[(4-fluoro-3-methylphenyl)methyl]-1,6-dihydro-5-hydroxy-2-[4-(2-hydroxyethyl)-1-piperazinyl]-1-methyl-6-oxo-4-pyrimidinecarboxamide]: 7.00 to 8.52; `Cn1c(N2CCCCS2(=O)=O)nc(C(=O)NCCc2c[nH]c3ccccc23)c(O)c1=O` [Compound 49, 1,6-dihydro-5-hydroxy-N-[2-(1H-indol-3-yl)ethyl]-1-methyl-6-oxo-2-(tetrahydro-1,1-dioxido-2H-1,2-thiazin-2-yl)-4-pyrimidinecarboxamide]: no more than 6.00. Next, `Cn1c(N2CCCCS2(=O)=O)nc(C(=O)NCc2ccccc2)c(O)c1=O` [Compound 35, 1,6-dihydro-5-hydroxy-1-methyl-6-oxo-N-(phenylmethyl)-2-(tetrahydro-1,1-dioxido-2H-1,2-thiazin-2-yl)-4-pyrimidinecarboxamide]: 6.00 to 7.00; `COc1cc(CNC(=O)c2nc(N3CCCCS3(=O)=O)n(C)c(=O)c2O)cc(OC)c1OC` [Compound 41, 1,6-dihydro-5-hydroxy-1-methyl-6-oxo-2-(tetrahydro-1,1-dioxido-2H-1,2-thiazin-2-yl)-N-[(3,4,5-trimethoxyphenyl)methyl]-4-pyrimidinecarboxamide]: no more than 6.00; `Cn1c(N2CCNCC2)nc(C(=O)NCc2ccc(F)cc2)c(O)c1=O` [Compound 69, N-[(4-fluorophenyl)methyl]-1,6-dihydro-5-hydroxy-1-methyl-6-oxo-2-(1-piperazinyl)-4-pyrimidinecarboxamide]: 6.00 to 7.00. Next, `Cn1c(N2CCCCS2(=O)=O)nc(C(=O)NCc2cc(Cl)ccc2Cl)c(O)c1=O` [Compound 42, N-[(2,5-dichlorophenyl)methyl]-1,6-dihydro-5-hydroxy-1-methyl-6-oxo-2-(tetrahydro-1,1-dioxido-2H-1,2-thiazin-2-yl)-4-pyrimidinecarboxamide]: 6.00 to 7.00. As to `Cc1ccc(CNC(=O)c2nc(N3CCCCS3(=O)=O)n(C)c(=O)c2O)cc1F` [Compound 14, N-[(3-fluoro-4-methylphenyl)methyl]-1,6-dihydro-5-hydroxy-1-methyl-6-oxo-2-(tetrahydro-1,1-dioxido-2H-1,2-thiazin-2-yl)-4-pyrimidinecarboxamide], the pIC50 was 7.00 to 8.52. Next, `Cn1c(N2CCCCS2(=O)=O)nc(C(=O)NCc2cc(F)ccc2F)c(O)c1=O` [Compound 45, N-[(2,5-difluorophenyl)methyl]-1,6-dihydro-5-hydroxy-1-methyl-6-oxo-2-(tetrahydro-1,1-dioxido-2H-1,2-thiazin-2-yl)-4-pyrimidinecarboxamide]: 6.00 to 7.00. Then `Cn1c(N2CCCCS2(=O)=O)nc(C(=O)NCc2ccc(F)c(F)c2)c(O)c1=O` [Compound 15, N-[(3,4-difluorophenyl)methyl]-1,6-dihydro-5-hydroxy-1-methyl-6-oxo-2-(tetrahydro-1,1-dioxido-2H-1,2-thiazin-2-yl)-4-pyrimidinecarboxamide], with 7.00 to 8.52; and `Cc1cc(CNC(=O)c2nc(-n3ncccc3=O)n(C)c(=O)c2O)ccc1F` [Compound 101, N-[(4-fluoro-3-methylphenyl)methyl]-1,6-dihydro-5-hydroxy-1-methyl-6-oxo-2-(6-oxo-1(6H)-pyridazinyl)-4-pyrimidinecarboxamide], with 7.00 to 8.52. Next, `Cc1cc(CNC(=O)c2nc(N3CCC3)n(C)c(=O)c2O)ccc1F` [Compound 93, 2-(1-azetidinyl)-N-[(4-fluoro-3-methylphenyl)methyl]-1,6-dihydro-5-hydroxy-1-methyl-6-oxo-4-pyrimidinecarboxamide]: 7.00 to 8.52.

For `Cn1c(N2CCCCS2(=O)=O)nc(C(=O)NCc2ccc(F)cc2)c(O)c1=O` [Compound 1, N-[(4-fluorophenyl)methyl]-1,6-dihydro-5-hydroxy-1-methyl-6-oxo-2-(tetrahydro-1,1-dioxido-2H-1,2-thiazin-2-yl)-4-pyrimidinecarboxamide], the pIC50 was 7.00 to 8.52. Then `Cn1c(N2CCCCS2(=O)=O)nc(C(=O)NCc2cccc(F)c2)c(O)c1=O` [Compound 3, N-[(3-fluorophenyl)methyl]-1,6-dihydro-5-hydroxy-1-methyl-6-oxo-2-(tetrahydro-1,1-dioxido-2H-1,2-thiazin-2-yl)-4-pyrimidinecarboxamide], with 6.00 to 7.00; and `Cn1c(N2CCC(O)CC2)nc(C(=O)NCc2ccc(F)cc2)c(O)c1=O` [Compound 65, N-[(4-fluorophenyl)methyl]-1,6-dihydro-5-hydroxy-2-(4-hydroxy-1-piperidinyl)-1-methyl-6-oxo-4-pyrimidinecarboxamide], with 7.00 to 8.52.

For the molecule `Cn1c(N)nc(C(=O)NCc2ccc(F)cc2)c(O)c1=O` [Compound 63, 2-amino-5-hydroxy-1-methyl-6-oxo-1,6-dihydro-pyrimidine-4-carboxylic acid 4-fluorobenzylamine], the pIC50 was 7.00 to 8.52.

As to `Cc1ccc(CNC(=O)c2nc(N3CCCCS3(=O)=O)n(C)c(=O)c2O)cc1C` [Compound 19, N-[(3,4-dimethylphenyl)methyl]-1,6-dihydro-5-hydroxy-1-methyl-6-oxo-2-(tetrahydro-1,1-dioxido-2H-1,2-thiazin-2-yl)-4-pyrimidinecarboxamide], the pIC50 was 7.00 to 8.52. Then `Cn1c(N2CCCCS2(=O)=O)nc(C(=O)NCc2ccc(F)c(Cl)c2)c(O)c1=O` [Compound 18, N-[(3-chloro-4-fluorophenyl)methyl]-1,6-dihydro-5-hydroxy-1-methyl-6-oxo-2-(tetrahydro-1,1-dioxido-2H-1,2-thiazin-2-yl)-4-pyrimidinecarboxamide], with 7.00 to 8.52; and `Cn1c(N2CCN(C(=O)N3CCNC3=O)CC2)nc(C(=O)NCc2ccc(F)cc2)c(O)c1=O` [Compound 85, N-[(4-fluorophenyl)methyl]-1,6-dihydro-5-hydroxy-1-methyl-6-oxo-2-[4-[(2-oxo-1-imidazolidinyl)carbonyl]-1-piperazinyl]-4-pyrimidinecarboxamide], with 7.00 to 8.52.

Take `Cn1c(N2CCCCS2(=O)=O)nc(C(=O)NCc2ccccc2Cl)c(O)c1=O` [Compound 36, N-[(2-chlorophenyl)methyl]-1,6-dihydro-5-hydroxy-1-methyl-6-oxo-2-(tetrahydro-1,1-dioxido-2H-1,2-thiazin-2-yl)-4-pyrimidinecarboxamide]: the pIC50 was 6.00 to 7.00. With `COc1cccc(CNC(=O)c2nc(N3CCCCS3(=O)=O)n(C)c(=O)c2O)c1` [Compound 11, 1,6-dihydro-5-hydroxy-N-[(3-methoxyphenyl)methyl]-1-methyl-6-oxo-2-(tetrahydro-1,1-dioxido-2H-1,2-thiazin-2-yl)-4-pyrimidinecarboxamide], the pIC50 was 6.00 to 7.00. Next, `Cn1c(N2CCCCS2(=O)=O)nc(C(=O)NCc2ccc(C(F)(F)F)cc2)c(O)c1=O` [Compound 32, 1,6-dihydro-5-hydroxy-1-methyl-6-oxo-2-(tetrahydro-1,1-dioxido-2H-1,2-thiazin-2-yl)-N-[[4-(trifluoromethyl)phenyl]methyl]-4-pyrimidinecarboxamide]: 6.00 to 7.00.
